Experimental data as given in patent US8329743B2, “Compositions and its use in treating obesity or inducing weight loss” (Sami Labs Limited, priority 2011, dated 2012).
In brackets after ≈: the same amount, converted by molar mass.

Test system: 3T3-L1 mouse adipocyte cells
Assay: Adipogenesis inhibition, Oil Red-O staining of adipocytes
Assay type: cell-based
Settings: Table 1, 3T3-L1 mouse adipocytes, OD 492 nm, read-out: Adipogenesis inhibitory activity (IC50)
Text: Adipogenesis, or the development of fat cells from preadipocytes, has been one of the most intensely studied models for obesity. A fat cell develops as internally produced lipid droplets coalesce into a single large mass. The in vitro adipogenesis inhibitory model can recapitulate most of the critical aspects of fat cell formation in vivo.
A common assay to measure adipocyte differentiation in cell culture is with the dye Oil Red-O, which is a lipid-soluble red dye. Since terminal differentiation of adipocytes is accompanied by the accumulation of great amounts of lipids in large cytoplasmic vesicles, a strong, bright, staining of the cytoplasm with this dye is a reliable indicator of adipocyte differentiation.
3T3-L1 mouse adipocyte cells are seeded at a density of 5000 cell/200 μl of adipocyte induction medium in a 96 well plate. After 48 hrs, sample is added. After 72 hrs, the medium is changed to adipocyte progression medium along with the sample. The medium is similarly changed after another 48 hours. The plates are washed gently after 48 hrs with 100 μl of PBS. […] The OD reading is taken at 492 nm in microplate reader.
The results are expressed as IC50 values using Graphpad prism software. The percentage of inhibition of adipogenesis is calculated as follows,
[formula] Where C—absorbance due to adipogenesis in untreated cells • T—absorbance due to adipogenesis in sample treated cells

| Compound | IC50 |
| --- | --- |
| C=C(C)[C@@H](CC=C(C)C)C[C@@]12C[C@@H](CC=C(C)C)C(C)(C)[C@@](CC=C(C)C)(C(=O)C(C(=O)c3ccc(O)c(O)c3)=C1O)C2=O [Garcinol] | 0.2 µg/mL (≈ 0.332 µM) |
| COc1cc(C=Cc2ccc(O)cc2)cc(OC)c1 [Pterostilbene, 3,5-dimethoxy-4′-hydroxystilbene] | 13.3 µg/mL (≈ 52 µM) |
